What was measured:
[1] = system: C57BL/6 mouse melanocytes (Mel-Ab cells); experiment: Melanin production inhibitory effect using mouse melanocytes; type: cell-based; settings: 25 ppm test material, three consecutive days, absorbance at 400 nm
Procedure: The melanin production inhibitory activities of the Chrysanthemum indicum var. albescens extract prepared in Preparation Example 1 and the Chrysanthemum indicum extract prepared in Comparative Preparation Example 1 were measured comparatively with those of the known whitening substance hydroquinone.
C57BL/6 mouse melanocytes (Mel-Ab cells) (Dooley, T. P. et al, Skin pharmacol, 7, pp 188-200) were cultured in DMEM, containing 10% fetal bovine serum, 100 nM 12-O-tetradecanoylphorbol-13-acetate and 1 nM cholera toxin, under the conditions of 37° C. and 5% CO2. The cultured Mel-Ab cells were detached with 0.25% trypsin-EDTA and cultured in a 24-well plate at a concentration of […]. Then, during three consecutive days from 2 days of culture, each of the test materials was added thereto and cultured. As the test materials, 25 ppm of each of the Chrysanthemum indicum var. albescens extract of Preparation Example 1, the Chrysanthemum indicum extract of Comparative Preparation Example 1, and hydroquinone were used. Herein, the hydroquinone was used as a positive control. […] The lysed cells were measured for absorbance at 400 nm, and based on the measured absorbance, the percent inhibition of melanin production was calculated according to the following equation 2. Percent inhibition of melanin production=100−(absorbance of test material/absorbance of control×100) Equation 2

collagenase = experiment: Inhibition of collagenase expression in human fibroblasts; type: cell-based; settings: 10^−4 M test material, 24 hours, untreated group = 100
Procedure: The collagenase expression inhibitory activities of the Chrysanthemum indicum var. albescens extract prepared in Preparation Example 1 and the Chrysanthemum indicum extract prepared in Comparative Preparation Example 1 were measured comparatively with those of tocopherol and EGCG. Tocopherol and EGCG are antioxidant substances known to function to regenerate the epidermal cells of the skin to prevent the aging of the skin.
In the test, human fibroblasts were added to a 96-well microtiter plate containing 2.5% FBS-containing DMEM (Dulbecco's Modified Eagle's Media) medium at a density of 5,000 cells/well and were cultured to a confluence of about 90%. […]
The production of collagenase in the harvested cell cultures was measured using a commercially available collagenase measuring device (Amersham Pharmacia, USA). […]
The absorbance of the 96-well plate having a yellow color was measured at 405 nm using a spectrophotometer, and the degree of synthesis of collagenase was calculated using the following Equation 1. Herein, the absorbance of the cell culture broth harvested from the group not treated with the test material was used as a control. That is, the expression level of collagenase in the untreated group was set as 100, and the expression level of collagenase in the group treated with the test material was calculated relative to the untreated group. […]

[2] = system: skin of panels sensitive to irritation; experiment: Irritation test (stinging, burning) in panels sensitive to irritation; type: in vivo; settings: 0.5 mL applied to skin, 15 panels
Procedure: In order to compare the sensory feeling of the Chrysanthemum indicum var. albescens extract of the present invention with that of the known whitening substance kojic acid, 15 panels sensitive to irritation, such as stinging, burning, etc., were subjected to a test for determining irritation, such as stinging, burning, etc.
Each test panel was allowed to apply 0.5 mL of each of kojic acid (available from YM Chemical Co.) and the Chrysanthemum indicum var. albescens extract to his/her skin randomly at the left side or right side, and then evaluate the test sample by grading from 0 to 3.0 at an interval of 0.1.
0.5-1.0: slight irritation;
1.1-2.0: mild irritation;
2.1-3.0: severe irritation.

[3] = grade 0 to 3.0 at interval of 0.1

Molecule: Oc1ccc(O)cc1 [Hydroquinone, hydroquinone]
- inhibition at 25 ppm [1]: 48.2%

Molecule: tocopherol
- Collagenase expression level (%) (collagenase): 76%

Molecule: O=c1cc(CO)occ1O [Kojic acid, kojic acid]
- Irritation with respect to stinging and burning (in words) [2]: slight stinging and burning
- Average (irritation grade of stinging and burning) ([2]; grade 0 to 3.0): 0.67
- Burning (irritation grade 0 to 3.0) [2, 3]: 0.43
- Stinging (irritation grade 0 to 3.0) [2, 3]: 0.91

Molecule: O=C(O[C@@H]1Cc2c(O)cc(O)cc2O[C@@H]1c1cc(O)c(O)c(O)c1)c1cc(O)c(O)c(O)c1 [EGCG]
- Collagenase expression level (%) (collagenase): 69%

Source: patent US10149817B2, “Topical skin treatment composition comprising dendranthema indicum extract” (AMOREPACIFIC CORPORATION, priority 2011, dated 2018)
